Source: ChEMBL document CHEMBL3885881, “DrugMatrix”

Species: Rattus norvegicus
Experiment: DrugMatrix - Regimen: Daily Repeat
Format: toxicity, organism-based, Sprague-Dawley
Parameters: regimen Daily Repeat, gender Male, age 6-8 weeks
Settings: in vivo, ip, route intraperitoneal, vehicle 100 % SALINE; for ALANINE AMINOTRANSFERASE / ALBUMIN / ALKALINE PHOSPHATASE / ASPARTATE AMINOTRANSFERASE / BLOOD UREA NITROGEN / CARBON DIOXIDE / CHLORIDE / CHOLESTEROL / CREATINE PHOSPHOKINASE / CREATININE / GLUCOSE / LACTATE DEHYDROGENASE / LIPASE / PHOSPHORUS / POTASSIUM / SODIUM / TOTAL BILIRUBIN / TOTAL PROTEIN / URIC ACID: tissue Plasma; for ABSOLUTE BASOPHIL / ABSOLUTE EOSINOPHIL / ABSOLUTE LYMPHOCYTE / ABSOLUTE MONOCYTE / ABSOLUTE SEGMENTED NEUTROPHIL / BASOPHIL / EOSINOPHIL / ERYTHROCYTE COUNT / HEMATOCRIT / HEMOGLOBIN / LEUKOCYTE COUNT / LYMPHOCYTE / MEAN CORPUSCULAR HEMOGLOBIN / MEAN CORPUSCULAR HEMOGLOBIN CONCENTRATION / MEAN CORPUSCULAR VOLUME / MONOCYTE / NEUTROPHIL / NUCLEATED RED BLOOD CELLS / PLATELET COUNT: tissue Blood
[1] = 16 mg/kg, […], dose level Low, time 7 day
[2] = 25 mg/kg, 72 h, dose level M1, time 3 day
[3] = 25 mg/kg, […], dose level M1, time 7 day
[4] = 32 mg/kg, 72 h, dose level High, time 3 day
[5] = 32 mg/kg, 120 h, dose level High, time 5 day

## C=CCO [ALLYL ALCOHOL]
[1]
  ALANINE AMINOTRANSFERASE: 80.83 u/L
  ALBUMIN: 4.13 G/DL
  ALKALINE PHOSPHATASE: 183 u/L
  ASPARTATE AMINOTRANSFERASE: 104.33 u/L
  BLOOD UREA NITROGEN: 16.67 mg/dL
  CARBON DIOXIDE: 32.17 mmol/L
  CHLORIDE: 100.67 MEQ/L
  CHOLESTEROL: 73.5 mg/dL
  CREATINE PHOSPHOKINASE: 256 u/L
  CREATININE: 0.27 mg/dL
  GLUCOSE: 141 mg/dL
  LACTATE DEHYDROGENASE: 96.17 u/L
  LIPASE: 10.5 u/L
  PHOSPHORUS: 10.28 mg/dL
  POTASSIUM: 5.47 MEQ/L
  SODIUM: 142.65 MEQ/L
  TOTAL BILIRUBIN: 0.12 mg/dL
  TOTAL PROTEIN: 6.32 G/DL
  URIC ACID: 0.65 mg/dL
[2]
  ABSOLUTE BASOPHIL: 0 CELLS/uL
  ABSOLUTE EOSINOPHIL: 43.33 CELLS/uL
  ABSOLUTE LYMPHOCYTE: 12346.17 CELLS/uL
  ABSOLUTE MONOCYTE: 299.67 CELLS/uL
  ABSOLUTE SEGMENTED NEUTROPHIL: 1244.17 CELLS/uL
  BASOPHIL: 0%
  EOSINOPHIL: 0.33%
  ERYTHROCYTE COUNT: 5.36 x10E6/uL
  HEMATOCRIT: 34.17%
  HEMOGLOBIN: 13.52 G/DL
  LEUKOCYTE COUNT: 13.93 x10E3/uL
  LYMPHOCYTE: 88.17%
  MEAN CORPUSCULAR HEMOGLOBIN: 25.25 pg
  MEAN CORPUSCULAR HEMOGLOBIN CONCENTRATION: 39.62 G/DL
  MEAN CORPUSCULAR VOLUME: 63.8 fL
  MONOCYTE: 2.17%
  NEUTROPHIL: 9.33%
  NUCLEATED RED BLOOD CELLS: 0 /100WBC
  PLATELET COUNT: 1124.67 x10E3/uL
  ALANINE AMINOTRANSFERASE: 46.67 u/L
  ALBUMIN: 4 G/DL
  ALKALINE PHOSPHATASE: 230.83 u/L
  ASPARTATE AMINOTRANSFERASE: 67.33 u/L
  BLOOD UREA NITROGEN: 11.17 mg/dL
  CARBON DIOXIDE: 32.67 mmol/L
  CHLORIDE: 102 MEQ/L
  CHOLESTEROL: 77.17 mg/dL
  CREATINE PHOSPHOKINASE: 229.5 u/L
  CREATININE: 0.39 mg/dL
  GLUCOSE: 137 mg/dL
  LACTATE DEHYDROGENASE: 101.67 u/L
  LIPASE: 8.33 u/L
  PHOSPHORUS: 9.72 mg/dL
  POTASSIUM: 5.84 MEQ/L
  SODIUM: 141.88 MEQ/L
  TOTAL BILIRUBIN: 0.17 mg/dL
  TOTAL PROTEIN: 6.07 G/DL
  URIC ACID: 1.12 mg/dL
[3]
  ABSOLUTE BASOPHIL: 0 CELLS/uL
  ABSOLUTE EOSINOPHIL: 65.67 CELLS/uL
  ABSOLUTE LYMPHOCYTE: 7275.5 CELLS/uL
  ABSOLUTE MONOCYTE: 150.67 CELLS/uL
  ABSOLUTE SEGMENTED NEUTROPHIL: 874.83 CELLS/uL
  BASOPHIL: 0%
  EOSINOPHIL: 0.67%
  ERYTHROCYTE COUNT: 5.49 x10E6/uL
  HEMATOCRIT: 34.07%
  HEMOGLOBIN: 13.33 G/DL
  LEUKOCYTE COUNT: 8.37 x10E3/uL
  LYMPHOCYTE: 87.67%
  MEAN CORPUSCULAR HEMOGLOBIN: 24.3 pg
  MEAN CORPUSCULAR HEMOGLOBIN CONCENTRATION: 39.13 G/DL
  MEAN CORPUSCULAR VOLUME: 62.12 fL
  MONOCYTE: 1.83%
  NEUTROPHIL: 9.83%
  NUCLEATED RED BLOOD CELLS: 0 /100WBC
  PLATELET COUNT: 1389.83 x10E3/uL
  ALANINE AMINOTRANSFERASE: 80.83 u/L
  ALBUMIN: 4.2 G/DL
  ALKALINE PHOSPHATASE: 232.83 u/L
  ASPARTATE AMINOTRANSFERASE: 88.17 u/L
  BLOOD UREA NITROGEN: 15 mg/dL
  CARBON DIOXIDE: 31.33 mmol/L
  CHLORIDE: 101 MEQ/L
  CHOLESTEROL: 66.5 mg/dL
  CREATINE PHOSPHOKINASE: 274.5 u/L
  CREATININE: 0.28 mg/dL
  GLUCOSE: 136.67 mg/dL
  LACTATE DEHYDROGENASE: 97 u/L
  LIPASE: 10.5 u/L
  PHOSPHORUS: 9.85 mg/dL
  POTASSIUM: 5.63 MEQ/L
  SODIUM: 144.45 MEQ/L
  TOTAL BILIRUBIN: 0.1 mg/dL
  TOTAL PROTEIN: 6.35 G/DL
  URIC ACID: 0.85 mg/dL
[4]
  ABSOLUTE BASOPHIL: 0 CELLS/uL
  ABSOLUTE EOSINOPHIL: 16 CELLS/uL
  ABSOLUTE LYMPHOCYTE: 7549.2 CELLS/uL
  ABSOLUTE MONOCYTE: 147.6 CELLS/uL
  ABSOLUTE SEGMENTED NEUTROPHIL: 1267.2 CELLS/uL
  BASOPHIL: 0%
  EOSINOPHIL: 0.2%
  ERYTHROCYTE COUNT: 5.74 x10E6/uL
  HEMATOCRIT: 34.96%
  HEMOGLOBIN: 13.16 G/DL
  LEUKOCYTE COUNT: 8.98 x10E3/uL
  LYMPHOCYTE: 84%
  MEAN CORPUSCULAR HEMOGLOBIN: 22.98 pg
  MEAN CORPUSCULAR HEMOGLOBIN CONCENTRATION: 37.66 G/DL
  MEAN CORPUSCULAR VOLUME: 61.06 fL
  MONOCYTE: 1.6%
  NEUTROPHIL: 14.2%
  NUCLEATED RED BLOOD CELLS: 0 /100WBC
  PLATELET COUNT: 945 x10E3/uL
  ALANINE AMINOTRANSFERASE: 456.4 u/L
  ALBUMIN: 3.86 G/DL
  ALKALINE PHOSPHATASE: 444.6 u/L
  ASPARTATE AMINOTRANSFERASE: 939.2 u/L
  BLOOD UREA NITROGEN: 15.6 mg/dL
  CARBON DIOXIDE: 28.24 mmol/L
  CHLORIDE: 98.33 MEQ/L
  CHOLESTEROL: 70.6 mg/dL
  CREATINE PHOSPHOKINASE: 527.8 u/L
  CREATININE: 0.2 mg/dL
  GLUCOSE: 138.2 mg/dL
  LACTATE DEHYDROGENASE: 186.6 u/L
  LIPASE: 9.25 u/L
  PHOSPHORUS: 9.34 mg/dL
  POTASSIUM: 5.07 MEQ/L
  SODIUM: 143.03 MEQ/L
  TOTAL BILIRUBIN: 0.2 mg/dL
  TOTAL PROTEIN: 5.94 G/DL
  URIC ACID: 0.58 mg/dL
[5]
  ABSOLUTE BASOPHIL: 0 CELLS/uL
  ABSOLUTE EOSINOPHIL: 0 CELLS/uL
  ABSOLUTE LYMPHOCYTE: 8954.4 CELLS/uL
  ABSOLUTE MONOCYTE: 236 CELLS/uL
  ABSOLUTE SEGMENTED NEUTROPHIL: 1769.6 CELLS/uL
  BASOPHIL: 0%
  EOSINOPHIL: 0%
  ERYTHROCYTE COUNT: 5.51 x10E6/uL
  HEMATOCRIT: 33.82%
  HEMOGLOBIN: 12.86 G/DL
  LEUKOCYTE COUNT: 10.96 x10E3/uL
  LYMPHOCYTE: 81.4%
  MEAN CORPUSCULAR HEMOGLOBIN: 23.36 pg
  MEAN CORPUSCULAR HEMOGLOBIN CONCENTRATION: 38.08 G/DL
  MEAN CORPUSCULAR VOLUME: 61.42 fL
  MONOCYTE: 2.2%
  NEUTROPHIL: 16.4%
  NUCLEATED RED BLOOD CELLS: 0 /100WBC
  PLATELET COUNT: 1673 x10E3/uL
  ALANINE AMINOTRANSFERASE: 57.8 u/L
  ALBUMIN: 4.32 G/DL
  ALKALINE PHOSPHATASE: 372.6 u/L
  ASPARTATE AMINOTRANSFERASE: 80.8 u/L
  BLOOD UREA NITROGEN: 12.6 mg/dL
  CARBON DIOXIDE: 32.4 mmol/L
  CHLORIDE: 102 MEQ/L
  CHOLESTEROL: 79.8 mg/dL
  CREATINE PHOSPHOKINASE: 211.6 u/L
  CREATININE: 0.16 mg/dL
  GLUCOSE: 162.6 mg/dL
  LACTATE DEHYDROGENASE: 154.6 u/L
  LIPASE: 9.6 u/L
  PHOSPHORUS: 9.92 mg/dL
  POTASSIUM: 5.73 MEQ/L
  SODIUM: 143.6 MEQ/L
  TOTAL BILIRUBIN: 0.22 mg/dL
  TOTAL PROTEIN: 6.56 G/DL
  URIC ACID: 0.94 mg/dL
